We go through one compound from patent US20250375419A1, “NOVEL RAS INHIBITORS” (KHR Biotec GmbH, priority 2022, published 2025).

Type in all cases: cell-based
Assay [1] deals with RAS protein of RASOpathie. The assay is described as follows: RASOpathie-Model; MTT assay for cell viability in 96 well cell culture plate. Conditions: 48 h treatment. How it is done: FIG. 4: RASOpathie-Model of Tegaserode maleate; MTT assay for cell viability in 96 well cell culture plate
Cells were treated with Tegaserode maleate for 48 h and cell viability was evaluated by MTT assay. DMSO-treated cells were set as 1. The results shown are mean±SEM from 3 independent experiments.
Background: Tetrazolium assays rely on reduction of a dye to a coloured formazan, in cell work by metabolically active cells.

Another assay relates to KRAS dependent cells. The assay is described as follows: MTT assay for cell viability, KRAS dependent cells (FIG. 3a). To be noted: irrespective of the presence of mutation, 48 h. How it is done: (§1) FIGS. 3a) und 3b): MTT assay for cell viability in 96 well cell culture plate Cells were treated with compounds for 48 h and cell viability was evaluated by MTT assay. The results shown are mean from 3 independent experiments. DMSO-treated cells were set as 1. The results shown are mean±SEM from 1-3 independent experiments.
(§2) G12C/Y96D mutation is normally seen in patients, who develop resistance to G12C inhibitor. Thus, patients, who are resistant to G12C inhibitors can still be treated with Tegaserode maleate.

In a further assay the test system is NCI-H2122. The assay is described as follows: Soft agar colony formation assay, colonies stained with MTT. To be noted: Homo sapiens; NCI-H2122, growth in soft agar, MTT absorbance 570 nm, 3 independent experiments. As to the method:
(§3) Metabolic activity was quantified using Cell Proliferation Kit I (Roche, Basel, Switzerland). Cells were seeded in 96-well cell culture plates, using 5000 cells per well for NCI-H358 cells. After treatment, 10 μl of MTT solution was added and incubated for 2 h in CO2 incubator. Then 100 μl of solubilization buffer was added to each well and incubated overnight in CO2 incubator. Cell viability, assessed by the amount of metabolized MTT, was quantified by measuring absorbance at 570 nm.
(§4) MTT assay for the growth of different tumour cell lines with RAS mutations in soft agar with Tegaserode maleate.
(§5) NCI-H358, H358, H2122, ASPC-1, HCT-116, T24 and HT1080 cells were used for the soft agar colony formation assay. After the treatment with Tegaserode maleate, the colonies were stained with MTT and the value was quantified by measuring absorbance at 570 nm after solubilization. The results represent mean±SEM from 3 independent experiments.

Another assay has as its system HT1080. The description is as above. To be noted: Homo sapiens, HT-1080; HT1080, growth in soft agar, MTT absorbance 570 nm, 3 independent experiments. As to the method:
as §3, §4, §5

For a further assay, the system named is ASPC1. The assay is described as above. To be noted: Homo sapiens; ASPC1, growth in soft agar, MTT absorbance 570 nm, 3 independent experiments. How it is done: as §3, §4, §5
The subject of a further assay is HCT-116. The description is as above. Conditions: Homo sapiens; HCT-116, growth in soft agar, MTT absorbance 570 nm, 3 independent experiments. As to the method:
as §3, §4, §5

A further assay deals with T24. Described as above. Conditions: Homo sapiens, T-24; T24, growth in soft agar, MTT absorbance 570 nm, 3 independent experiments. How it is done: as §3, §4, §5
A further assay deals with NCI-H358. The assay is described as above. Conditions: Homo sapiens; NCI-H358, growth in soft agar, MTT absorbance 570 nm, 3 independent experiments. As to the method:
as §3, §4, §5

A further assay deals with BaF3 KRAS G12C/Y96D. The assay is described as follows: MTT assay for cell viability in 96 well cell culture plate. Conditions: Mus musculus, 48 h treatment. How it is done:
as §3, §1, §2

The next assay deals with BaF3 KRAS G12C. The description is as above. Conditions: Mus musculus, 48 h treatment. How it is done: as §3, §1, §2

A word on the IC50: it is the concentration that gives 50% inhibition. Low readings indicate inhibition by little substance, high ones a need for much substance. Consider `CCCCCNC(=N)N/N=C/c1c[nH]c2ccc(OC)cc12.O=C(O)/C=C\C(=O)O` [Tegaserode maleate, 2-[(5-Methoxy-1H-indol-3-yl)methylene]-N-pentyl-hydrazinecarboximidamide maleate], for which the “inhibition of RAS protein of RASOpathie (cell viability)” value in assay [1] is listed as “inhibits RAS protein of RASOpathie”. Besides, the “inhibition of KRAS dependent cells” value with KRAS dependent cells was “inhibits KRAS dependent cells irrespective of the presence of mutation”. For the same compound, the IC50 with NCI-H2122 was 3.37 µM; in the assay with HT1080, 2.43 µM; in the assay on ASPC1 it was 4.76 µM; in the assay with HCT-116, 3.12 µM; in the assay on T24, 11.3 µM; in the assay with NCI-H358, 5.39 µM. The half-inhibitory concentration (IC50) was found to be 2.86 µM in the assay with BaF3 KRAS G12C/Y96D and 10.2 µM with BaF3 KRAS G12C.
